What all share (type): cell-based, Human papilloma virus
The subject of assay [1] is HPV 16. The assay is described as follows: HPV 16 episome DNA levels in W12E cells by Q-PCR (Taqman). The following applies: for IC50: effective (pseudo) IC50, 50% reduction in HPV DNA relative to vehicle (0.1% DMSO), read-out: HPV-16 IC50. As for the experimental part: Cells maintaining HPV 16 DNA were cultured for 72 hours in the presence of cidofovir, interferon γ or polyamide. Viral DNA was then quantified using real-time PCR and compared to vehicle (DMSO)-treated control cultures.
Compounds were initially tested for effects on HPV 16 episome DNA levels in W12E cells by Q-PCR (Taqman™) over 3 concentration ranges (0.1, 1 and 10 μM). W12E cells are a cervical keratinocyte cell line originally identified by M. Stanley (Cambridge University), and later optimized and provided by P. Lambert (U. of Wisconsin). […] In all cases (initial tests and follow-up IC50 tests), dose testing was performed in triplicate. […] Furthermore, all experiments were conducted in triplicate, multiple times. The data were then combined, pseudo or effective IC50 values calculated, and variance determined to reveal the fit of the data to the model and its reliability.
Keratinocytes that maintain HPV 16 episomes were treated with increasing concentrations of polyamides.
For orientation: Quantitative PCR measures a nucleic acid by following its amplification.

Assay [2] deals with HPV31. The assay is described as follows: HPV31 DNA levels in keratinocytes by real-time PCR. The following applies: effective (pseudo) IC50. The protocol:
(§1) Human keratinocytes, including those maintaining HPV episomes, are cultured on mitomycin C-treated J2 3T3 cells in media containing three parts Dulbecco's modified Eagle medium (DMEM) and one part F12 media, our modification of published methods (Rheinwald and Green, 1975). Media (E Media) is supplemented with 0.4 μg/mL hydrocortisone, 10 ng/mL cholera toxin, 5 μg/mL insulin, 24 μg/mL adenine, 5 μg/mL transferrin, […] (T3), 10 ng/mL epidermal growth factor (EGF), 1% penicillin-streptomycin, and 5% fetal bovine serum (FBS). All cells are passaged at 70% confluency at a split ratio of 1:5.
(§2) Polyamides for HPV 18 are dissolved at 10 mM in 100% DMSO and diluted with H2O to 1 mM. Polyamides are added to cells in E media at final concentrations of 0.1-10 μM, with final DMSO concentrations of 0.1%. As controls, cells are incubated with normal E media and E media containing the “vehicle” 0.1% DMSO. The HPV DNA levels are then quantified according to previously published procedures (Garner-Hamrick and Fisher, Virology, 301, 334-41, 2002). After incubation, cells are harvested from the plates by either trypsinization or direct lysis with proteinase K digestion buffer (PK buffer: 100 mM NaCl, 10 mM Tris pH 8, 25 mM EDTA, 0.5% SDS, 0.1 mg/mL proteinase K). Trypsinized cells are counted on a hemocytometer and pelleted by centrifugation. Episomal HPV is isolated by the Hirt method (Hirt, 1967) and cell pellets are lysed in 0.6% SDS with 10 mM EDTA. NaCl is next added to a final concentration of 1 M. Following an overnight incubation at 4° C., precipitates containing the chromosomal DNA are spun down and episomal DNA precipitated by the addition of isopropanol. Cells lysed directly in PK buffer are transferred to microfuge tubes and incubated at 50° C. for 2 h. Lysates are then extracted with phenol/chloroform/isoamyl alcohol and spun through a phase lock gel (Eppendorf, Hamburg, Germany). Total DNA is then precipitated with 0.3 M NaOAc and 2.5 vol. ethanol and resuspended in Tris-EDTA (TE) buffer.
HPV31 primers-probe sets for PCR were also designed within the L1 gene:
(§3) All primers and probes are synthesized and HPLC purified by Applied Biosystems (Foster City, Calif.). The HPV probes are labeled with the 5′ reporter dye FAM (6-carboxy-fluorescein) and the 3′ quencher dye TAMRA (6-carboxytetramethyl-rhodamine). A standard curve is generated using a range of 10^8 to 10 copies/reaction of cloned, genomic HPV31 or HPV18 DNA using the following formula: (1.82×10^15)(μg/μL stock DNA)/(length in base pairs)(2)=copies/μL stock DNA. PCR reactions contain final concentrations of 1× Universal Master Mix (PE Applied Biosystems), 200 nM of each primer, and 250 nM probe (PE Applied Biosystems) in a reaction volume of 25 μL. Each Hirt-isolated DNA sample is analyzed in triplicate reactions for episomal HPV. Copies/reaction are determined from the standard curve, and copies/cell determined according to the following formula: (copies/reaction)×(DNA dilution)/(total # cells)=copies/cell.

The subject of assay [3] is HPV18. The assay is described as follows: HPV18 DNA levels in keratinocytes by real-time PCR. The following applies: effective (pseudo) IC50. The protocol: as §1, §2
Viral DNA levels are next quantified according to variations on our previously published methods (Garner-Hamrick and Fisher, Virology, 301, 334-41, 2002). Quantitative PCR is performed using Real-Time PCR technology on an ABI PRISM 7700 Sequence Detector. All primers and probes were designed using Primer Express 1.0 (ABI). For HPV 18, PCR primer-probe sets were designed within the L1 gene:
as §3

On to `CN(C)CCCNC(=O)CCNC(=O)c1cc(NC(=O)c2cc(NC(=O)c3cc(NC(=O)CCNC(=O)c4cc(NC(=O)c5cc(NC(=O)c6cc(NC(=O)CCNC(=O)c7cc(NC(=O)c8cc(NC(=O)c9cc(NC(=O)CCCNC(=O)c%10cc(NC(=O)c%11cc(NC(=O)CCNC(=O)c%12cc(NC(=O)c%13cc(NC(=O)c%14cc(NC(=O)CCNC(=O)c%15cc(NC(=O)c%16cc(NC(=O)c%17cc(NC(=O)c%18nccn%18C)cn%17C)cn%16C)cn%15C)cn%14C)cn%13C)cn%12C)cn%11C)cn%10C)cn9C)cn8C)cn7C)cn6C)cn5C)cn4C)cn3C)cn2C)cn1C` [Polyamide 1047, ImPPPβPPPβPPγPPPβPPPβPPPβDp], for which the IC50 (usually the midpoint of a concentration-inhibition curve) in assay [1] was above 1 µM; in assay [2], at least 1 µM; in assay [3], at least 1 µM.
For `CN(CCCN)CCCNC(=O)CCNC(=O)c1cc(NC(=O)c2cc(NC(=O)c3cc(NC(=O)CCNC(=O)c4cc(NC(=O)c5cc(NC(=O)c6cc(NC(=O)CCNC(=O)c7cc(NC(=O)c8cc(NC(=O)c9cc(NC(=O)CCCNC(=O)c%10cc(NC(=O)c%11cc(NC(=O)CCNC(=O)c%12cc(NC(=O)c%13cc(NC(=O)c%14cc(NC(=O)CCNC(=O)c%15cc(NC(=O)c%16cc(NC(=O)c%17cc(NC(=O)c%18nccn%18C)cn%17C)cn%16C)cn%15C)cn%14C)cn%13C)cn%12C)cn%11C)cn%10C)cn9C)cn8C)cn7C)cn6C)cn5C)cn4C)cn3C)cn2C)cn1C` [Polyamide 1048, ImPPPβPPPβPPγPPPβPPPβPPPβTa], the concentration for half-maximal inhibition (IC50) in assay [1], in assay [2] and in assay [3] was 0.1 to 1 µM in each case.
With `CN(CCCN)CCCNC(=O)CCNC(=O)c1cc(NC(=O)c2cc(NC(=O)c3cc(NC(=O)CCNC(=O)c4cc(NC(=O)c5cc(NC(=O)c6cc(NC(=O)CCNC(=O)c7cc(NC(=O)c8cc(NC(=O)[C@@H](CCN)NC(=O)c9cc(NC(=O)c%10cc(NC(=O)CCNC(=O)c%11nc(NC(=O)c%12cc(NC(=O)c%13cc(NC(=O)CCNC(=O)c%14cc(NC(=O)c%15cc(NC(=O)c%16nccn%16C)cn%15C)cn%14C)cn%13C)cn%12C)cn%11C)cn%10C)cn9C)cn8C)cn7C)cn6C)cn5C)cn4C)cn3C)cn2C)cn1C` [Polyamide 1049, ImPPβPPIβPPγNH2PPβPPPβPPPβTa], the IC50 in assay [1] was 0.1 to 1 µM; in assay [2], at least 1 µM; in assay [3] it was 0.1 to 1 µM.
As to `CN(C)CCCNC(=O)CCNC(=O)c1cc(NC(=O)c2cc(NC(=O)c3cc(NC(=O)CCNC(=O)c4cc(NC(=O)c5cc(NC(=O)c6cc(NC(=O)CCNC(=O)c7cc(NC(=O)c8cc(NC(=O)[C@@H](CCN)NC(=O)c9cc(NC(=O)c%10cc(NC(=O)CCNC(=O)c%11nc(NC(=O)c%12cc(NC(=O)c%13cc(NC(=O)CCNC(=O)c%14cc(NC(=O)c%15cc(NC(=O)c%16nccn%16C)cn%15C)cn%14C)cn%13C)cn%12C)cn%11C)cn%10C)cn9C)cn8C)cn7C)cn6C)cn5C)cn4C)cn3C)cn2C)cn1C` [Polyamide 1050, ImPPβPPIβPPγNH2PPβPPPβPPPβDp], the IC50 was 0.1 to 1 µM in assay [1], 0.1 to 1 µM in assay [2] and at least 1 µM in assay [3].
For the compound `CN(C)CCCNC(=O)CCNC(=O)c1cc(NC(=O)c2cc(NC(=O)c3cc(NC(=O)CCNC(=O)c4cc(NC(=O)c5cc(NC(=O)c6cc(NC(=O)CCNC(=O)c7cc(NC(=O)c8cc(NC(=O)[C@H](N)CCNC(=O)c9cc(NC(=O)c%10cc(NC(=O)CCNC(=O)c%11nc(NC(=O)c%12cc(NC(=O)c%13cc(NC(=O)CCNC(=O)c%14cc(NC(=O)c%15cc(NC(=O)c%16nccn%16C)cn%15C)cn%14C)cn%13C)cn%12C)cn%11C)cn%10C)cn9C)cn8C)cn7C)cn6C)cn5C)cn4C)cn3C)cn2C)cn1C` [Polyamide 1066, ImPPβPPIβPPγNH2PPβPPPβPPPβDp], the IC50 in assay [1], in assay [2] and in assay [3] was 0.1 to 1 µM throughout.
With `CN(CCCN)CCCNC(=O)CCNC(=O)c1cc(NC(=O)c2cc(NC(=O)c3cc(NC(=O)CCNC(=O)c4cc(NC(=O)c5cc(NC(=O)c6cc(NC(=O)CCNC(=O)c7cc(NC(=O)c8cc(NC(=O)[C@H](N)CCNC(=O)c9cc(NC(=O)c%10cc(NC(=O)CCNC(=O)c%11nc(NC(=O)c%12cc(NC(=O)c%13cc(NC(=O)CCNC(=O)c%14cc(NC(=O)c%15cc(NC(=O)c%16nccn%16C)cn%15C)cn%14C)cn%13C)cn%12C)cn%11C)cn%10C)cn9C)cn8C)cn7C)cn6C)cn5C)cn4C)cn3C)cn2C)cn1C` [Polyamide 1067, ImPPβPPIβPPγNH2PPβPPPβPPPβTa], the half-maximal inhibitory concentration (IC50) in assay [1], in assay [2] and in assay [3] was 0.1 to 1 µM throughout.
For `CC(=O)N[C@H](CCNC(=O)c1cc(NC(=O)c2cc(NC(=O)CCNC(=O)c3nc(NC(=O)c4cc(NC(=O)c5cc(NC(=O)CCNC(=O)c6cc(NC(=O)c7cc(NC(=O)c8nccn8C)cn7C)cn6C)cn5C)cn4C)cn3C)cn2C)cn1C)C(=O)Nc1cc(C(=O)Nc2cc(C(=O)NCCC(=O)Nc3cc(C(=O)Nc4cc(C(=O)Nc5cc(C(=O)NCCC(=O)Nc6cc(C(=O)Nc7cc(C(=O)Nc8cc(C(=O)NCCC(=O)NCCCN(C)C)n(C)c8)n(C)c7)n(C)c6)n(C)c5)n(C)c4)n(C)c3)n(C)c2)n(C)c1` [Polyamide 1068, ImPPβPPIβPPγNHAcPPβPPPβPPPβDp], the concentration for half-maximal inhibition (IC50) in assay [1], in assay [2] and in assay [3] was 0.1 to 1 µM throughout.
Take `CN(CCCN)CCCNC(=O)c1cc(NC(=O)c2cc(NC(=O)c3cc(NC(=O)c4cc(NC(=O)c5cc(NC(=O)CCNC(=O)c6cc(NC(=O)c7cc(NC(=O)CCCNC(=O)c8cc(NC(=O)c9cc(NC(=O)c%10cc(NC(=O)CCNC(=O)c%11cc(NC(=O)c%12cc(NC(=O)c%13nccn%13C)cn%12C)cn%11C)cn%10C)cn9C)cn8C)cn7C)cn6C)cn5C)cn4C)cn3C)cn2C)cn1C` [Polyamide 1069, ImPPβPPPγPPβPPPPPTa]: the figures for the half-maximal inhibitory concentration (IC50) in assay [1], in assay [2] and in assay [3] were 0.1 to 1 µM, 0.1 to 1 µM and at least 1 µM, respectively.
“ImPPPβPPβPPPγNH2PPPβPPPβPPPβDp [Polyamide 1003]”: the 50% inhibitory concentration (IC50) in assay [1], in assay [2] and in assay [3] was 0.1 to 1 µM in each case.
“ImPPPβPPβPPPγPPPβPPPβPPPβDp [Polyamide 1004]”: the half-inhibitory concentration (IC50) is 0.1 to 1 µM in assay [1], 0.1 to 1 µM in assay [2] and at most 0.1 µM in assay [3]. In addition, in assay [1] (higher doses, in some experiments, FIG. 3), the “effect on absolute HPV 16 DNA levels” value is reported as “nearly complete elimination of detectable viral DNA”.
As for “ImPPβPPIβPPγPPβPPPβPPPPTa [Polyamide 1070]”, the half-maximal inhibitory concentration (IC50) in assay [1], in assay [2] and in assay [3] was 0.1 to 1 µM each time.
In the case of ImPPβPPPγNH2PPβPPPPβDp [Polyamide 1024], the IC50 is above 1 µM in assay [1], 0.1 to 1 µM in assay [2] and at least 1 µM in assay [3].

For the origin of these results see US9290551B2, “Compounds for treating papilloma virus infection” (NanoVir, LLC, priority 2012, dated 2016).
